Test results as given in patent US10221225B2, “Peptides and combination of peptides and scaffolds thereof for use in immunotherapy against colorectal carcinoma (CRC) and other cancers” (immatics biotechnologies GmbH, priority 2015, dated 2019).

What was measured:
CD8+ T-cells = assay: In vitro T-cell priming assay with aAPCs loaded with peptide/MHC and anti-CD28, pMHC multimer readout; assay type: cell-based, human; conditions: in vitro immunogenicity, HLA-A*02 restricted peptides
Description: In order to obtain information regarding the immunogenicity of the TUMAPs of the present invention, the inventors performed investigations using an in vitro T-cell priming assay based on repeated stimulations of CD8+ T-cells with artificial antigen presenting cells (aAPCs) loaded with peptide/MHC complexes and anti-CD28 antibody.
In order to perform in vitro stimulations by artificial antigen presenting cells loaded with peptide-MHC complex (pMHC) and anti-CD28 antibody, the inventors first isolated CD8+ T-cells from fresh HLA-A*02 leukopheresis products via positive selection using CD8 microbeads (Miltenyi Biotec, Bergisch-Gladbach, Germany) of healthy donors obtained from the University clinics Mannheim, Germany, after informed consent.
PBMCs and isolated CD8+ lymphocytes were incubated in T-cell medium (TCM) until use consisting of RPMI-Glutamax (Invitrogen, Karlsruhe, Germany) supplemented with 10% heat inactivated human AB serum (PAN-Biotech, Aidenbach, Germany), 100 U/ml Penicillin/100 μg/ml Streptomycin (Cambrex, Cologne, Germany), 1 mM sodium pyruvate (CC Pro, Oberdorla, Germany), 20 μg/ml Gentamycin (Cambrex). 2.5 ng/ml IL-7 (PromoCell, Heidelberg, Germany) and 10 U/ml IL-2 (Novartis Pharma, Nürnberg, Germany) were also added to the TCM at this step.
Generation of pMHC/anti-CD28 coated beads, T-cell stimulations and readout was performed in a highly defined in vitro system using four different pMHC molecules per stimulation condition and 8 different pMHC molecules per readout condition.
The purified co-stimulatory mouse IgG2a anti human CD28 Ab 9.3 (Jung et al., 1987) was chemically biotinylated using Sulfo-N-hydroxysuccinimidobiotin as recommended by the manufacturer (Perbio, Bonn, Germany). Beads used were 5.6 μm diameter streptavidin coated polystyrene particles (Bangs Laboratories, Illinois, USA).
800,000 beads/200 μl were coated in 96-well plates in the presence of 4×12.5 ng different biotin-pMHC, washed and 600 ng biotin anti-CD28 were added subsequently in a volume of 200 μl. Stimulations were initiated in 96-well plates by co-incubating 1×10^6 CD8+ T-cells with 2×10^5 washed coated beads in 200 μl TCM supplemented with 5 ng/ml IL-12 (PromoCell) for 3 days at 37° C. Half of the medium was then exchanged by fresh TCM supplemented with 80 U/ml IL-2 and incubating was continued for 4 days at 37° C. This stimulation cycle was performed for a total of three times. For the pMHC multimer readout using 8 different pMHC molecules per condition, a two-dimensional combinatorial coding approach was used as previously described (Andersen et al., 2012) with minor modifications encompassing coupling to 5 different fluorochromes. Finally, multimeric analyses were performed by staining the cells with Live/dead near IR dye (Invitrogen, Karlsruhe, Germany), CD8-FITC antibody clone SK1 (BD, Heidelberg, Germany) and fluorescent pMHC multimers. For analysis, a BD LSRII SORP cytometer equipped with appropriate lasers and filters was used. Peptide specific cells were calculated as percentage of total CD8+ cells. Evaluation of multimeric analysis was done using the FlowJo software (Tree Star, Oregon, USA). In vitro priming of specific multimer+ CD8+ lymphocytes was detected by comparing to negative control stimulations.

HLA-A*02:01 = HLA-A*02:01 (Homo sapiens, UniProt P04439, D140Y/D185E/D98H/E176V/E277Q/G131W/G231S/I119V/I121R/I166T/I218V/L300P/L318F/N151K/N90K/P208A/P217A/Q86G/Q94H/R138H/R169H/T345S); assay: MHC binding assay (UV-ligand exchange, beta2m ELISA, peptide exchange yield); conditions: MHC class I binding score; binding to HLA-A*02:01 ranged by peptide exchange yield (UV-ligand exchange, β2m ELISA)
Method in brief: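 Peptide–MHC complexes formed by UV-ligand exchange, cleaving a UV-sensitive peptide so the test peptide can bind. Exchange yield measured by ELISA: complexes captured on streptavidin-coated wells, diluted 100-fold, detected with HRP anti-β2m (1 h, 37 °C) and TMB at 450 nm, against refolded HLA-A*02:01/MLA-001 standards (15-500 ng/ml).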

| Substance | Peptide exchange (HLA-A*02:01) | Wells positive (CD8+ T-cells) |
| --- | --- | --- |
| 59 (LLTDNVVKL; listed as Homo sapiens) [compound 59] | ″+++″ (≥50 = +++) | ″+″ (<20% = +) |
| 64 (KTLGKLWRL; listed as Homo sapiens) [compound 64] | ″++″ (≥20% = ++) | ″++++″ (>= 70% = ++++) |
| 123 (KTLERSYLL; listed as Homo sapiens) [compound 123] | ″++″ (≥20% = ++) | ″+″ (<20% = +) |
| 124 (RVLPPSALQSV; listed as Homo sapiens) [compound 124] | ″+++″ (≥50 = +++) | ″+″ (<20% = +) |
| 127 (RLAELTVDEFLA; listed as Homo sapiens) [compound 127] | ″+++″ (≥50 = +++) | ″+″ (<20% = +) |
| 132 (ALLNAILHSA; listed as Homo sapiens) [compound 132] | ″++″ (≥20% = ++) | ″+″ (<20% = +) |
| 133 (RTFEKIEEV; listed as Homo sapiens) [compound 133] | ″++″ (≥20% = ++) | ″+″ (<20% = +) |

Now from value to substance, other results behind:

| Peptide exchange (HLA-A*02:01) | Substance | Wells positive (CD8+ T-cells) |
| --- | --- | --- |
| ″+++″ (≥50 = +++) | 136 (KLFDIFSQQV; listed as Homo sapiens) [compound 136] | ″++″ (20%-49% = ++) |
| ″++++″ (≥75% = ++++) | 141 (AVIEHLERL; listed as Homo sapiens) [compound 141] | ″+″ (<20% = +) |
| ″+++″ (≥50 = +++) | 142 (SLVQRVETI; listed as Homo sapiens) [compound 142] | ″+″ (<20% = +) |
| ″+++″ (≥50 = +++) | 150 (RLADLEALKV; listed as Homo sapiens) [compound 150] | ″++″ (20%-49% = ++) |
